Measurements from patent US20130287890A1, “INHIBITOR OF THE PRODUCTION OF ADVANCED GLYCATION END PRODUCTS” (UENO FINE CHEMICALS INDUSTRY, LTD., priority 2012, published 2013).

System: fluorescent AGEs
Experiment: Quantitative determination of fluorescent AGEs after reaction at 37° C. for 42 days
Assay type: biochemical
Conditions: for Fluorescent AGEs: 37° C., 42 days
Protocol: After 0.4 g of a high molecular weight fraction and 8 mL of 6N hydrochloric acid were charged in an ampule and the air in the ampule was replaced with nitrogen, hydrolysis was performed at 110° C. for 16 hours in a heat block. After reaction, 8 mL of 5N sodium hydroxide was added, and pH was adjusted using 1N hydrochloric acid and 1N sodium hydroxide to make pH within a range of 7.2 to 7.6. Then, the solution was filtered through a 0.45 μm filter. Using the thus obtained filtrate as a sample, fluorescent AGEs were quantitatively determined using the following methods. After weighing 2.5 mg of a standard substance perylene, the standard substance perylene was fully dissolved in 10 mL of deaerated ethanol added thereto to prepare a perylene solution. The perylene solution diluted to the concentration of 10 μM was exposed to excitation light with a wavelength of 386 nm and then the area was calculated by measuring a fluorescence intensity ranging from 410 to 600 nm. Meanwhile, the sample was exposed to excitation light with a wavelength of 380 nm and then the area was calculated by measuring a fluorescence intensity ranging from 400 to 600 nm. By considering the area measurement value of the sample as a value relative to the area value of the 10 μM perylene solution, fluorescent AGEs were determined.
Amino acid or biological protein, carbohydrates and a phosphate buffer solution were charged in a 50 mL polypropylene centrifuge tube in each amount shown in Table 8, followed by sealing and stirring, and then the mixture was reacted in an incubator at 37° C. for 42 days. Next, the reactant was fractionated by centrifugation at 3,000 rpm for 3 hours using an ultrafiltration unit (VIVA SPIN 20, manufactured by Sartorius Corporation). The obtained low molecular weight fraction was used as a sample for determination of 3-DG, while the obtained high molecular weight fraction was used as a sample for the determination of fluorescent AGEs. Amino acid, biological protein and carbohydrates used are as follows:
In the same manner as in Test Example 1, except that the low molecular weight fraction prepared as mentioned above was used as a sample, quantitative determination of 3-DG was performed. In the same manner as in Test Example 2, except that the high molecular weight fraction prepared as mentioned above was used as a sample, determination of fluorescent AGEs was performed.
Amino acid, carbohydrates and a phosphate buffer solution were charged in a 50 mL polypropylene centrifuge tube in each amount shown in Table 10, followed by sealing and stirring, and then the mixture was reacted in an incubator at 37° C. for 42 days. Next, the reactant was filtered through a 0.2 μm filter and the obtained filtrate was used as a sample. Amino acid and carbohydrates used are as follows:
After weighing 2.5 mg of a standard substance perylene, the standard substance perylene was fully dissolved in 50 mL of deaerated ethanol added thereto to prepare a perylene solution. The perylene solution diluted to the concentration of 10 μM was exposed to excitation light with a wavelength of 386 nm and then the area was calculated by measuring a fluorescence intensity ranging from 410 to 600 nm. Meanwhile, the sample was exposed to excitation light with a wavelength of 380 nm and then the area was calculated by measuring a fluorescence intensity ranging from 400 to 600 nm. By considering the area measurement value of the sample as a value relative to the area value of the 10 μM perylene solution, fluorescent AGEs were quantitatively determined.
Biological proteins, carbohydrates and a phosphate buffer solution are charged in a 50 mL polypropylene centrifuge tube in each amount shown in Table 12, followed by sealing and stirring, and then the mixture was reacted in an incubator at 37° C. for 42 days. Next, the reactant was fractionated by centrifugation at 3,000 rpm for 3 hours using an ultrafiltration unit (VIVA SPIN 20, manufactured by Sartorius Corporation). […]

[1] = Test Example 4, amino acid 0.4 g + carbohydrate 1.8 g
[2] = Test Example 5, bovine serum albumin 0.4 g + carbohydrate 1.8 g
[3] = Test Example 5, human serum albumin 0.4 g + carbohydrate 1.8 g
[4] = Test Example 5, γ-globulin 0.4 g + carbohydrate 1.8 g
[5] = Test Example 6, collagen 0.015 g + carbohydrate 1.8 g, hydrolysed high molecular weight fraction
[6] = Test Example 3, amino acid (lysine:arginine 1:1) 0.4 g + glucose 1.8 g or maltitol 3.4 g
[7] = Test Example 3, bovine serum albumin 0.4 g + glucose 1.8 g or maltitol 3.4 g

O=C(CO)[C@@H](O)[C@H](O)[C@H](O)CO [Fructose]
Fluorescent AGEs [1]: 11.4 nmol/1 mL of reaction solution | Fluorescent AGEs [2]: 28 nmol/1 mL of reaction solution | Fluorescent AGEs [3]: 25.2 nmol/1 mL of reaction solution | Fluorescent AGEs [4]: 17.3 nmol/1 mL of reaction solution | Fluorescent AGEs [5]: 2.4 nmol/1 mL of reaction solution

O=C[C@H](O)[C@@H](O)[C@H](O)[C@H](O)CO [Glucose]
Fluorescent AGEs [6]: 91 nmol/1 g of protein | Fluorescent AGEs [7]: 46 nmol/1 g of protein | Fluorescent AGEs [1]: 17.4 nmol/1 mL of reaction solution | Fluorescent AGEs [2]: 11 nmol/1 mL of reaction solution | Fluorescent AGEs [3]: 8.6 nmol/1 mL of reaction solution | Fluorescent AGEs [4]: 3.0 nmol/1 mL of reaction solution | Fluorescent AGEs [5]: 1.4 nmol/1 mL of reaction solution

OC[C@@H](O)[C@@H](O[C@H]1O[C@H](CO)[C@@H](O)[C@H](O)[C@H]1O)[C@H](O)[C@@H](O)CO [Maltitol]
Fluorescent AGEs [6]: 2 nmol/1 g of protein | production of AGEs (Test Example 3, amino acids and bovine serum albumin, compared with sections containing glucose): decreased | Fluorescent AGEs [7]: 7 nmol/1 g of protein

OC[C@@H](O)[C@@H](O)[C@H](O)[C@@H](O)CO [Sorbitol]
Fluorescent AGEs [1]: 0.4 nmol/1 mL of reaction solution | production of fluorescent AGEs (Test Example 4, amino acid, compared with sections containing glucose and fructose): decreased | Fluorescent AGEs [2]: 2.0 nmol/1 mL of reaction solution | production of fluorescent AGEs (Test Example 5, bovine serum albumin, human serum albumin, γ-globulin, compared with sections containing fructose): decreased | production of fluorescent AGEs (Test Example 5, bovine serum albumin, human serum albumin, γ-globulin, compared with sections containing glucose): decreased | Fluorescent AGEs [3]: 5.4 nmol/1 mL of reaction solution | Fluorescent AGEs [4]: 1.3 nmol/1 mL of reaction solution | Fluorescent AGEs [5]: 0.5 nmol/1 mL of reaction solution | production of fluorescent AGEs (Test Example 6, collagen, compared with sections containing glucose and fructose): decreased
